≈ marks a conversion by molar mass, not a printed value.
Key:
[1] = Saturation solubility of rutin by shake flask method; assay type: physicochemical; details: thermodynamic from solid
[2] = tested on: PDI; design: method as in Jasuja et al., 2012; details: insulin-based turbidimetric assay; 95% CI 1.1–10.7 μM; ref Jasuja et al., 2012; read-out: IC50 of PDI inhibition; cited from earlier work
[3] = target: T1, thrombin (Homo sapiens, UniProt P00734); assay: Hydrolysis of chromogenic substrate S2238 by thrombin in vitro; assay type: biochemical; details: rutin up to 50 μM, 0.4 U/mL thrombin
T1 construct: Human thrombin was purchased from Hematologic Technologies Inc. (Essex Junction, VT); purchased Hematologic Technologies Inc. (Essex Junction, VT)
Excerpt: We tested the antithrombotic effects of NanoR and NaR ex vivo and in vivo. Thrombin plays a pivotal role in the coagulation process, and its amount reflects the hemostatic function (Mann, [2003]). […] In our clot formation study, the treatment with NanoR and NaR led to delayed clotting initiation time and a limited extent of clot formation. Again, NanoR exerted a stronger anticoagulatory effect than NaR, and excess exogenous PDI restored the coagulation function of pretreated plasma in clot formation assay. […] The link between obstructive atherosclerosis in the epicardial coronary arteries and myocardial ischemia is well established. In the past several decades, however, a number of studies have discovered that coronary microvascular dysfunction and remodeling contribute to myocardial ischemia in patients with normal coronary arteries. […] Recently, a novel two-stage mechanism for the action of FeCl3 in thrombus formation has been proposed. The first stage is based on colloidal chemistry principles whereby cells and plasma proteins adhere and aggregate due to the binding of negatively charged proteins to positively charged iron species. The extent of this stage is dependent on effective FeCl3 concentration, which is governed by intraluminal mass transport. […] (A) The hydrolysis of chromogenic substrate S2238 by different concentrations of thrombin was determined.

With `C[C@@H]1O[C@@H](OC[C@H]2O[C@@H](Oc3c(-c4ccc(O)c(O)c4)oc4cc(O)cc(O)c4c3=O)[C@H](O)[C@@H](O)[C@@H]2O)[C@H](O)[C@H](O)[C@H]1O` [rutin, quercetin-3-O-rutinoside] the solubility at 72 h ([1]; organic solvent or mixture, in 1,2-propylene glycol, 37 °C, 72 h) was 32 ± 2 mg/mL (≈ 52.4 mM), the solubility at 72 h ([1]; self-emulsifying formulation F2, 37 °C, in formulation F2) was 24.3 ± 3.2 mg/mL (≈ 39.8 mM) and the solubility at 72 h ([1]; self-emulsifying formulation F5, 37 °C, in formulation F5) was 19.2 ± 2.8 mg/mL (≈ 31.4 mM). For the same compound, the solubility at 72 h ([1]; self-emulsifying formulation F7, 37 °C, in formulation F7) was 16.2 ± 3.7 mg/mL (≈ 26.5 mM), the solubility at 72 h ([1]; in Labrasol, 37 °C, 72 h) was 5.2 ± 0.18 mg/mL (≈ 8.52 mM) and the IC50 [2] was 6.1 µM. For the same compound, the “effect on thrombin activity (hydrolysis of S2238)” value [3] was “did not inhibit thrombin proteolytic activity” and the “effect on thrombin activity (hydrolysis of S2238)” value ([3]; listed as native rutin) was “did not affect the activity of thrombin”.

Reference: paper PMC9186361 (Drug Delivery, 2022)
